Measured values published in patent publication US9321774B2, “Pyrrolobenzodiazepines” (MEDIMMUNE LIMITED, priority 2012, dated 2016).
≈ marks a conversion by molar mass, not a printed value. Read-outs that look alike come from different tables or passages of the source.

Experiments:
Experiment in all cases: CLSI broth microplate assay, MIC
Assay type in all cases: cell-based
MRSA strain EMRSA-16 = conditions: Staphylococcus aureus, read-out: Minimum inhibitory concentration (MIC mg/L) EMRSA-16
E. faecalis VRE1 = conditions: Enterococcus faecalis
MRSA strain BB568 = conditions: Staphylococcus aureus, read-out: Minimum inhibitory concentration (MIC mg/L) BB568
E. faecium VRE10 = conditions: Enterococcus faecium
[1] = tested on: community-associated MRSA isolate USA300; conditions: Staphylococcus aureus, read-out: Minimum inhibitory concentration (MIC mg/L) USA300
[2] = tested on: S. aureus VISA strain Mu50; conditions: Staphylococcus aureus, read-out: Minimum inhibitory concentration (MIC mg/L) Mu50
MRSA strain EMRSA-15 = conditions: Staphylococcus aureus, read-out: Minimum inhibitory concentration (MIC mg/L) EMRSA-15
[3] = VRE1, read-out: Minimum inhibitory concentration (MIC mg/L) VRE1
[4] = VRE10, read-out: Minimum inhibitory concentration (MIC mg/L) VRE10
[5] = EMRSA-16, Mueller-Hinton broth, 37° C.
[6] = VRE1, Mueller-Hinton broth, 37° C., read-out: Minimum inhibitory concentration (MIC mg/L) VRE1
[7] = BB568, Mueller-Hinton broth, 37° C.
[8] = VRE10, Mueller-Hinton broth, 37° C., read-out: Minimum inhibitory concentration (MIC mg/L) VRE10
[9] = Mu50, Mueller-Hinton broth, 37° C.
[10] = EMRSA-15, Mueller-Hinton broth, 37° C.

SMILES | MIC (MRSA strain EMRSA-16) | MIC (E. faecalis VRE1; [3]) | MIC (MRSA strain BB568) | MIC (E. faecium VRE10; [4]) | MIC [1] | MIC [2] | MIC (MRSA strain EMRSA-15) | MIC (MRSA strain EMRSA-16; [5]) | MIC (E. faecalis VRE1; [6]) | MIC (MRSA strain BB568; [7]) | MIC (E. faecium VRE10; [8]) | MIC [2, 9] | MIC (MRSA strain EMRSA-15; [10])
COC(=O)c1cc(-c2ccc(NC(=O)c3cc(-c4ccc(NC(=O)CCCOc5cc6c(cc5OC)C(=O)N5CCC[C@H]5C=N6)cc4)co3)cc2)cn1C [Compound 56, (S)-methyl 4-(4-(4-(4-(4-((7-methoxy-5-oxo-2,3,5,11a-tetrahydro-1H-benzo[e]pyrrolo[1,2-a][1,4]diazepin-8-yl)oxy)butanamido)phenyl)furan-2-carboxamido)phenyl)-1-methyl-1H-pyrrole-2-carboxylate] | 0.5 mg/L (≈ 0.685 µM) | 0.5 mg/L (≈ 0.685 µM) | 0.5 mg/L (≈ 0.685 µM) | 0.25 mg/L (≈ 0.343 µM) | 1 mg/L (≈ 1.37 µM) | 0.5 mg/L (≈ 0.685 µM) | 0.25 mg/L (≈ 0.343 µM) |  |  |  |  |  | 
COc1cc2c(cc1OCCCC(=O)Nc1ccc(-c3cc(C(=O)Nc4ccc(N5CCOCC5)nc4)n(C)c3)cc1)N=C[C@@H]1CCCN1C2=O [Compound 53, (S)-4-(4-(4-((7-methoxy-5-oxo-2,3,5,11a-tetrahydro-1H-benzo[e]pyrrolo[1,2-a][1,4]diazepin-8-yl)oxy)butanamido)phenyl)-1-methyl-N-(6-morpholinopyridin-3-yl)-1H-pyrrole-2-carboxamide] | 2 to 4 mg/L (≈ 2.89 to 5.78 µM) | 1 mg/L (≈ 1.45 µM) | 4 mg/L (≈ 5.78 µM) | 0.5 mg/L (≈ 0.723 µM) | 4 mg/L (≈ 5.78 µM) | 2 mg/L (≈ 2.89 µM) | 1 mg/L (≈ 1.45 µM) |  |  |  |  |  | 
COc1cc2c(cc1OCCCC(=O)Nc1cc(C(=O)Nc3ccc4sccc4c3)n(C)c1)N=C[C@@H]1CCCN1C2=O [Compound 27, (S)—N-(benzo[b]thiophen-5-yl)-4-(4-((7-methoxy-5-oxo-2,3,5,11a-tetrahydro-1H-benzo[e]pyrrolo[1,2-a][1,4]diazepin-8-yl)oxy)butanamido)-1-methyl-1H-pyrrole-2-carboxamide] |  |  |  |  | 0.06 to 0.125 mg/L (≈ 0.102 to 0.213 µM) |  |  | 0.125 mg/L (≈ 0.213 µM) | 0.125 mg/L (≈ 0.213 µM) | 0.125 mg/L (≈ 0.213 µM) | 0.03 mg/L (≈ 0.0512 µM) | < 0.03 mg/L | 0.03 mg/L (≈ 0.0512 µM)
COc1cc2c(cc1OCCCC(=O)Nc1cn(C)c(C(=O)Nc3ccc(OCCN4CCOCC4)cc3)n1)N=C[C@@H]1CCCN1C2=O [Compound 39, (S)-4-(4-((7-methoxy-5-oxo-2,3,5,11a-tetrahydro-1H-benzo[e]pyrrolo[1,2-a][1,4]diazepin-8-yl)oxy)butanamido)-1-methyl-N-(4-(2-morpholinoethoxyl)phenyl)-1H-imidazole-2-carboxamide] |  |  |  |  | 0.5 mg/L (≈ 0.758 µM) |  |  | 0.25 mg/L (≈ 0.379 µM) | 0.125 mg/L (≈ 0.189 µM) | 0.25 to 0.5 mg/L (≈ 0.379 to 0.758 µM) | 0.5 mg/L (≈ 0.758 µM) | 0.125 mg/L (≈ 0.189 µM) | 0.25 mg/L (≈ 0.379 µM)
COc1cc2c(cc1OCCCC(=O)Nc1cc(C(=O)Nc3ccc(N4CCOCC4)nc3)n(C)c1)N=C[C@@H]1CCCN1C2=O [Compound 31, (S)-4-(4-((7-methoxy-5-oxo-2,3,5,11a-tetrahydro-1H-benzo[e]pyrrolo[1,2-a][1,4]diazepin-8-yl)oxy)butanamido)-1-methyl-N-(6-morpholinopyridin-3-yl)-1H-pyrrole-2-carboxamide] | 4 mg/L (≈ 6.5 µM) | 1 mg/L (≈ 1.62 µM) | 4 mg/L (≈ 6.5 µM) | 0.5 mg/L (≈ 0.812 µM) | 1 mg/L (≈ 1.62 µM) |  | 0.5 mg/L (≈ 0.812 µM) |  |  |  |  |  | 
COC(=O)c1ccc(-c2ccc(NC(=O)CCCOc3cc4c(cc3OC)C(=O)N3CCC[C@H]3C=N4)cc2)s1 [Compound 18, (S)-methyl 5-(4-(4-((7-methoxy-5-oxo-2,3,5,11a-tetrahydro-1H-benzo[e]pyrrolo[1,2-a][1,4]diazepin-8-yl)oxy)butanamido)phenyl)thiophene-2-carboxylate, reference compound] | > 32 mg/L | > 32 mg/L | > 32 mg/L | 16 mg/L (≈ 29.2 µM) | 32 mg/L (≈ 58.4 µM) | > 32 mg/L | > 32 mg/L |  |  |  |  |  | 
COc1cc2c(cc1OCCCC(=O)Nc1cn(C)c(C(=O)Nc3ccc(N4CCOCC4)cc3)n1)N=C[C@@H]1CCCN1C2=O [Compound 37, (S)-4-(4-((7-methoxy-5-oxo-2,3,5,11a-tetrahydro-1H-benzo[e]pyrrolo[1,2-a][1,4]diazepin-8-yl)oxy)butanamido)-1-methyl-N-(4-morpholinophenyl)-1H-imidazole-2-carboxamide] | 0.5 mg/L (≈ 0.812 µM) | 0.25 mg/L (≈ 0.406 µM) | 0.5 mg/L (≈ 0.812 µM) | 0.125 mg/L (≈ 0.203 µM) | 0.125 mg/L (≈ 0.203 µM) |  | 0.125 mg/L (≈ 0.203 µM) |  |  |  |  |  | 
